Assay results: ChEMBL document CHEMBL3045167, “Synthesis and evaluation of antiinflammatory activity of substituted chalcone derivatives” (2010)
Active and inactive are the calls of the source. The calls are words filed in the database; no cut-off is given here.

How the values were obtained:
Type in all cases: functional
Mus musculus [1] = assay: Anti-inflammatory activity in Mus musculus Kunming (mouse) assessed as inhibition of xylene-induced ear edema at 200 mg/kg, po administered 3 hr prior to xylene challenge measured at 3 hr post xylene challenge relative to control
Mus musculus [2] = assay: Anti-inflammatory activity in Mus musculus Kunming (mouse) assessed as inhibition of xylene-induced ear edema at 200 mg/kg, po administered 2 hr prior to xylene challenge measured at 2 hr post xylene challenge relative to control
Mus musculus [3] = assay: Anti-inflammatory activity in Mus musculus Kunming (mouse) assessed as inhibition of xylene-induced ear edema at 200 mg/kg, po administered 24 hr prior to xylene challenge measured at 24 hr post xylene challenge relative to control
Mus musculus [4] = assay: Anti-inflammatory activity in Mus musculus Kunming (mouse) assessed as inhibition of xylene-induced ear edema at 50 mg/kg, po administered 2 hr prior to xylene challenge measured at 2 hr post xylene challenge relative to control
Mus musculus [5] = assay: Anti-inflammatory activity in Mus musculus Kunming (mouse) assessed as inhibition of xylene-induced ear edema at 100 mg/kg, po administered 2 hr prior to xylene challenge measured at 2 hr post xylene challenge relative to control
Mus musculus [6] = assay: Anti-inflammatory activity in Mus musculus Kunming (mouse) assessed as inhibition of xylene-induced ear edema at 200 mg/kg, po administered 1 hr prior to xylene challenge measured at 1 hr post xylene challenge relative to control
Mus musculus [7] = assay: Anti-inflammatory activity in Mus musculus Kunming (mouse) assessed as inhibition of xylene-induced ear edema at 200 mg/kg, po administered 4 hr prior to xylene challenge measured at 4 hr post xylene challenge relative to control
Mus musculus [8] = assay: Anti-inflammatory activity in Mus musculus Kunming (mouse) assessed as inhibition of xylene-induced ear edema at 200 mg/kg, po administered 0.5 hr prior to xylene challenge measured at 0.5 hr post xylene challenge relative to control

Work on `O=C(/C=C/c1ccc(Cl)cc1)c1ccc(O)cc1O` yielded an inhibition in vivo at 200 mg/kg (Mus musculus [1]) of 33.6%, an inhibition in vivo at 200 mg/kg (Mus musculus [2]) of 68.2% and an inhibition in vivo at 200 mg/kg (Mus musculus [3]) of 21.5%. For the same molecule, the inhibition in vivo at 50 mg/kg (Mus musculus [4]) was 18.6%, the inhibition in vivo at 100 mg/kg (Mus musculus [5]) was 49% and the inhibition in vivo at 200 mg/kg (Mus musculus [6]) was 32.5%. For the same molecule, the inhibition in vivo at 200 mg/kg (Mus musculus [7]) was 32.3% and the inhibition in vivo at 200 mg/kg (Mus musculus [8]) was 30.2%.
`COc1cc(/C=C/C(=O)c2ccc(O)cc2)ccc1O` gave an inhibition in vivo at 200 mg/kg (Mus musculus [2]) of 7.83%.
`O=C(/C=C/c1ccc(O)cc1)c1ccc(O)cc1` [4,4'-DIHYDROXYCHALCONE] gave an inhibition in vivo at 200 mg/kg (Mus musculus [2]) of 5.42%.
`COc1ccc(/C=C/C(=O)c2ccc(O)cc2O)cc1` gave an inhibition in vivo at 200 mg/kg (Mus musculus [2]) of 51.4%.
Work on `COc1cc(/C=C/C(=O)c2ccc(O)cc2O)ccc1O` [HOMOBUTEIN] yielded an inhibition in vivo at 200 mg/kg (Mus musculus [2]) of 25.2%.
For `O=C(/C=C/c1ccc(Cl)cc1Cl)c1ccc(O)cc1O`, the inhibition in vivo at 200 mg/kg (Mus musculus [2]) was 26%.
With `O=C(/C=C/c1ccc(O)c(O)c1)c1ccc(O)cc1O` [BUTEIN] the inhibition in vivo at 200 mg/kg (Mus musculus [2]) was 14.4%.
For `O=C(/C=C/c1cccc([N+](=O)[O-])c1)c1ccc(O)cc1O`, the inhibition in vivo at 200 mg/kg (Mus musculus [2]) was 30%.
With `CC(C)Cc1ccc(C(C)C(=O)O)cc1` (stereo unspecified) [IBUPROFEN] the inhibition in vivo at 200 mg/kg (Mus musculus [1]) was 34.5%, the inhibition in vivo at 200 mg/kg (Mus musculus [2]) was 53.5% and the inhibition in vivo at 200 mg/kg (Mus musculus [3]) was 20.6%. It also gave an inhibition in vivo at 50 mg/kg (Mus musculus [4]) of 19.8%, an inhibition in vivo at 100 mg/kg (Mus musculus [5]) of 33% and an inhibition in vivo at 200 mg/kg (Mus musculus [6]) of 41.6%. The inhibition in vivo at 200 mg/kg (Mus musculus [7]) was 30.1% and the inhibition in vivo at 200 mg/kg (Mus musculus [8]) was 32.5%.
`O=C(/C=C/c1ccccc1[N+](=O)[O-])c1ccc(O)cc1O` was tested, and the inhibition in vivo at 200 mg/kg (Mus musculus [2]) was 20.2%.
For `CN(C)c1ccc(/C=C/C(=O)c2ccc(O)cc2)cc1`, the inhibition in vivo at 200 mg/kg (Mus musculus [2]) was 17.3%.
With `CN(C)c1ccc(/C=C/C(=O)c2ccc(O)cc2O)cc1` the inhibition in vivo at 200 mg/kg (Mus musculus [1]) was 27.5%, the inhibition in vivo at 200 mg/kg (Mus musculus [2]) was 62.5% and the inhibition in vivo at 200 mg/kg (Mus musculus [3]) was 21.2%. The inhibition in vivo at 50 mg/kg (Mus musculus [4]) was 15.1%, the inhibition in vivo at 100 mg/kg (Mus musculus [5]) was 32.9% and the inhibition in vivo at 200 mg/kg (Mus musculus [6]) was 45.8%. The inhibition in vivo at 200 mg/kg (Mus musculus [7]) was 25.3% and the inhibition in vivo at 200 mg/kg (Mus musculus [8]) was 41.7%.
For `O=C(/C=C/c1ccc(O)cc1)c1ccc(O)cc1O` [ISOLIQUIRITIGENIN], the inhibition in vivo at 200 mg/kg (Mus musculus [2]) was 14.9%.
Work on `O=C(/C=C/c1ccc2c(c1)OCO2)c1ccc(O)cc1O` yielded an inhibition in vivo at 200 mg/kg (Mus musculus [2]) of 22%.
In the case of `Cc1ccc(/C=C/C(=O)c2ccc(O)cc2O)cc1`, the inhibition (Mus musculus [2]) is reported as “inactive”.
